Laboratory results reported in ChEMBL document CHEMBL2046383, “Hyrtioreticulins A-E, indole alkaloids inhibiting the ubiquitin-activating enzyme, from the marine sponge Hyrtios reticulatus” (Bioorg Med Chem, 2012).
The source made the active and inactive calls. No cut-off for these calls is given here.

Key:
[1] = molecular target: T1, Ubiquitin-like modifier-activating enzyme 1 (Homo sapiens) (UniProt P22314); test: Inhibition of GST-tagged ubiquitin binding to FLAG-tagged E1 at 50 uM after 20 mins by immunoprecipitation analysis
T1 sequence (whole entry): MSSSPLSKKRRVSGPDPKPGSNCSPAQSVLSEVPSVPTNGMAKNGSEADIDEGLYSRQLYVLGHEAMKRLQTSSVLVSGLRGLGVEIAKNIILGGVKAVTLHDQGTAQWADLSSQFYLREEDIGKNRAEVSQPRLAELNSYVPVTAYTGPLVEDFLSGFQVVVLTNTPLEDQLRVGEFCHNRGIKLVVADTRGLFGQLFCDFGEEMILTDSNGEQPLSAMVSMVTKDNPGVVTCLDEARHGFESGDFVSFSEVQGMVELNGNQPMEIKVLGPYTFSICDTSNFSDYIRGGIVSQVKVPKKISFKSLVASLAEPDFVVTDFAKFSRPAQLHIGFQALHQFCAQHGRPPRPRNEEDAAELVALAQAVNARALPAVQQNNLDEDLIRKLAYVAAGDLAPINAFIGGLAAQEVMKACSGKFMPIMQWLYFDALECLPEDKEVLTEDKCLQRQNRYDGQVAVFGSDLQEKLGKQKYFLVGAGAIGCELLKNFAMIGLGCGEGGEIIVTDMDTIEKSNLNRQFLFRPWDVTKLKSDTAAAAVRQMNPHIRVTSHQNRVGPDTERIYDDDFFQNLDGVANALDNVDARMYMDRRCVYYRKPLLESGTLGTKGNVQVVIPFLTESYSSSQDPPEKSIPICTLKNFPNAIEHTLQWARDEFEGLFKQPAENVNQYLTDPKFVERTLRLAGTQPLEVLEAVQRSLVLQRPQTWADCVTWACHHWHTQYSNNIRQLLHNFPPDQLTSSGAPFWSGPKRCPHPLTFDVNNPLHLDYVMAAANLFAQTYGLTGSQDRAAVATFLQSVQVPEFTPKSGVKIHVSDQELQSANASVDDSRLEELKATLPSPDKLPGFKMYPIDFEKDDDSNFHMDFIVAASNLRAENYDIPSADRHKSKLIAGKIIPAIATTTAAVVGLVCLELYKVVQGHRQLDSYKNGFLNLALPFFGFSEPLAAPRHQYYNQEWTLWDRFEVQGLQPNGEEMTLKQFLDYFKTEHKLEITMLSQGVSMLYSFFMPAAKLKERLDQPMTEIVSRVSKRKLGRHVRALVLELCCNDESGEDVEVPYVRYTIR

[2] = molecular target: T2, Ubiquitin-like modifier-activating enzyme 1 (Homo sapiens, UniProt P22314); test: (§1) Inhibition of FLAG-tagged ubiquitin-activating enzyme E1 assessed as inhibition of GST-ubiquitin/FLAG-E1 intermediate formation by Western blot analysis
T2 sequence (P22314 whole entry): T1 sequence (whole entry)

HeLa = test: Cytotoxicity against human HeLa cells at 50 ug/mL; format: functional, cell-based
[3] = molecular target: T1, Ubiquitin-like modifier-activating enzyme 1 (Homo sapiens); test: as §1
[4] = molecular target: T2, Ubiquitin-like modifier-activating enzyme 1; test: Inhibition of ubiquitin-activating enzyme E1
[5] = molecular target: T1, Ubiquitin-like modifier-activating enzyme 1 (Homo sapiens); test: Inhibition of FLAG-tagged ubiquitin-activating enzyme E1 assessed as inhibition of GST-ubiquitin/FLAG-E1 intermediate formation at 100 uM by Western blot analysis
[6] = molecular target: T2, Ubiquitin-like modifier-activating enzyme 1; test: Inhibition of recombinant fluorescein-tagged E1 assessed as inhibition of ubiquitin-E1 adduct formation incubated for 15 mins prior to ATP addition measured after 5 mins by SDS PAGE analysis

Row | Structure (SMILES) | inhibition [1] | Activity (HeLa) | other results
1 | C[C@@H](CC(=O)NC(=O)c1coc(/C=C/CCCCCCCCC(=O)O)cc1=O)C(=O)O | Active |  | 
2 | O=C(O)[C@@H]1Cc2c([nH]c3ccc(O)cc23)[C@@H](Cc2cnc[nH]2)N1 [HYRTIORETICULIN A] |  |  | IC50 [2]: 2.4 µM
3 | C[C@@H]1N[C@H](C(=O)O)Cc2c[nH]c3ccc(O)c1c23 |  | inactive | 
4 | C[C@H]1N[C@H](C(=O)O)Cc2c1[nH]c1ccc(O)cc21 |  | inactive | 
5 | O=C(O)[C@@H]1Cc2c([nH]c3ccc(O)cc23)[C@@H](Cc2c[nH]cn2)N1 | inactive | inactive | inhibition [3]: Dose-dependent effect
6 | C[C@H]1N[C@H](C(=O)O)Cc2c[nH]c3ccc(O)c1c23 |  | inactive | 
7 | CC(C)(O)/C=C/[C@@]12[C@H]3[C@@H](O)[C@@H]4O[C@@H]4[C@]1(O)OC(C)(C)[C@H]2C=C1C(=O)[C@H]2O[C@H]2[C@H](O)[C@H]13 [PANEPOPHENANTHRINE] |  |  | IC50 [4]: 40 µM
8 | C[C@H]1N[C@@H](C(=O)O)Cc2c1[nH]c1ccc(O)cc21 |  | inactive | inhibition [5]: Active
9 | O=C(O)[C@@H]1Cc2c([nH]c3ccc(O)cc23)[C@H](Cc2c[nH]cn2)N1 [HYRTIORETICULIN B] | inactive | inactive | IC50 [2]: 35 µM; inhibition [3]: Dose-dependent effect
10 | CCCCCCCC(=O)SCC/C=C/[C@@H]1CC(=O)NCc2nc(cs2)C2=N[C@@](C)(CS2)C(=O)N[C@@H](C(C)C)C(=O)O1 [LARGAZOLE] |  |  | IC50 [6]: 29 µM
